Article PMC6181586 (Chemical communications (Cambridge, England), 2018)

Molecular target: CatB (Homo sapiens, UniProt P07858)
Experiment: SDS-PAGE of adduct formation with CatB
Format: biochemical
Conditions: co-incubation with conjugates and CatB, SDS-PAGE autoradiography

Structure (SMILES): CCCNC(=O)[C@H]1O[C@@H]1C(=O)N[C@H](C(=O)N1CCC[C@H]1C(=O)O)[C@@H](C)CC [CA-074]
- Effect of co-incubation on CatB adducts of the conjugates: eliminated observable CatB adducts
